Reference: US12448388B2, “PRMT5 inhibitors and uses thereof” (Gilead Sciences, Inc., priority 2023, dated 2025)

These compounds were tested on HCT116 MTAP-deleted cell lines (assay: Cell viability assay (CellTiter-Glo, 7 days), HCT116 MTAP-deleted). Conditions: Homo sapiens, HCT-116; cell viability assay, HCT116 MTAP-deleted; class symbols; read-out: CC50.
Format: cell-based
How it was run: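 Each PRMT5 inhibitor was tested as a dose response alongside tool compounds on the same plate. Incubation ran 7 days at 37 °C under 5% CO2, after which CellTiter-Glo luminescence was recorded and CC50 calculated.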
With `CN(C(=O)c1cc2c(cc1F)nc(N)c1cncn12)[C@@H]1COc2cc(C#CC(C)(C)F)ccc21` [Ff-447, 4-amino-7-fluoro-N-[(3S)-6-(3-fluoro-3-methyl-but-1-ynyl)-2,3-dihydrobenzofuran-3-yl]-N-methyl-imidazo[1,5-a]quinoxaline-8-carboxamide] the CC50 was less than 100 nM.
In the case of `N#C[C@@H]1C[C@H]1c1ccc2c(c1)C[C@H]1OCCN(C(=O)c3cc4c(cc3F)nc(N)c3cncn34)[C@@H]21` [Ff-448, Trans-2-[(4aS,9aR)-4-(4-amino-7-fluoro-imidazo[1,5-a]quinoxaline-8-carbonyl)-3,4a,9,9a-tetrahydro-2H-indeno[2,1-b][1,4]oxazin-7-yl]cyclopropanecarbonitrile], the CC50 is reported as less than 100 nM.
`CN(C(=O)c1cc2c(cn1)nc(N)c1cncn12)[C@@H]1COc2cc(C34CC(C3)C4)ccc21` [Ff-449, 7-amino-N-[(3S)-6-(1-bicyclo[1.1.1]pentanyl)-2,3-dihydrobenzofuran-3-yl]-N-methyl-2,4,8,11-tetrazatricyclo[7.4.0.02,6]trideca-1(9),3,5,7,10,12-hexaene-12-carboxamide] showed a CC50 of less than 100 nM.
`Cc1ncn2c1c(N)nc1cc(F)c(C(=O)N(C)[C@@H]3COc4cc([C@@H]5C[C@H]5C#N)c(F)cc43)cc12` [Ff-450, Trans-4-amino-N-[(3S)-6-(2-cyanocyclopropyl)-5-fluoro-2,3-dihydrobenzofuran-3-yl]-7-fluoro-N,3-dimethyl-imidazo[1,5-a]quinoxaline-8-carboxamide] was tested, and the CC50 was less than 100 nM.
With `CN(C(=O)c1cc2c(cn1)nc(N)c1cncn12)[C@@H]1COc2cc(C34CC(C(F)F)(C3)C4)ccc21` [Ff-451, (S)-4-amino-N-(6-(3-(difluoromethyl)bicyclo[1.1.1]pentan-1-yl)-2,3-dihydrobenzofuran-3-yl)-N-methylimidazo[1,5-a]pyrido[3,4-e]pyrazine-8-carboxamide] the CC50 was less than 100 nM.
`Cc1ncn2c1c(N)nc1cnc(C(=O)N(C)[C@@H]3COc4cc(C56CC(C5)C6)ccc43)cc12` [Ff-452, (S)-4-amino-N-(6-(bicyclo[1.1.1]pentan-1-yl)-2,3-dihydrobenzofuran-3-yl)-N,3-dimethylimidazo[1,5-a]pyrido[3,4-e]pyrazine-8-carboxamide] was tested, and the CC50 was less than 100 nM.
Work on `CN(C(=O)c1cc2c(cc1F)nc(N)c1cncn12)[C@@H]1COc2cc(C34CC(F)(C3)C4)ccc21` [Ff-453, 4-amino-7-fluoro-N-[(3S)-6-(3-fluoro-1-bicyclo[1.1.1]pentanyl)-2,3-dihydrobenzofuran-3-yl]-N-methyl-imidazo[1,5-a]quinoxaline-8-carboxamide] yielded a CC50 of less than 100 nM.
With `CN(Cc1ccn(-c2ccccc2)n1)C(=O)c1cc2c(cc1F)nc(N)c1cncn12` [Ff-454, 4-amino-7-fluoro-N-methyl-N-((1-phenyl-1H-pyrazol-3-yl)methyl)imidazo[1,5-a]quinoxaline-8-carboxamide] the CC50 was 100 to 1000 nM.
`CN(C(=O)c1cc2c(cc1F)nc(N)c1cncn12)[C@@H]1COc2c(Br)cccc21` [Ff-455, (S)-4-amino-N-(7-bromo-2,3-dihydrobenzofuran-3-yl)-7-fluoro-N-methylimidazo[1,5-a]quinoxaline-8-carboxamide] was tested, and the CC50 was 100 to 1000 nM.
For `CN(C(=O)c1cc2c(cc1F)nc(N)c1cncn12)C1CSc2ccccc21` (stereo not drawn) [Ff-456, 4-amino-N-(2,3-dihydrobenzo[b]thiophen-3-yl)-7-fluoro-N-methylimidazo[1,5-a]quinoxaline-8-carboxamide], the CC50 was 100 to 1000 nM.
In the case of `CN(C(=O)c1cc2c(cc1F)nc(N)c1cncn12)[C@@H]1COc2ccc(Br)cc21` [Ff-457, (S)-4-amino-N-(5-bromo-2,3-dihydrobenzofuran-3-yl)-7-fluoro-N-methylimidazo[1,5-a]quinoxaline-8-carboxamide], the CC50 is reported as less than 100 nM.
`CN(C(=O)c1cc2c(cc1F)nc(N)c1cncn12)C1COc2ccc(C(F)(F)F)cc21` (stereo not drawn) [Ff-458, 4-amino-7-fluoro-N-methyl-N-(5-(trifluoromethyl)-2,3-dihydrobenzofuran-3-yl)imidazo[1,5-a]quinoxaline-8-carboxamide] showed a CC50 of less than 100 nM.
Compound `CN(C(=O)c1cc2c(cc1F)nc(N)c1cncn12)C1COc2cc3c(cc21)CCC3` (stereo not drawn) [Ff-459, 4-amino-7-fluoro-N-methyl-N-(3,5,6,7-tetrahydro-2H-indeno[5,6-b]furan-3-yl)imidazo[1,5-a]quinoxaline-8-carboxamide] has a CC50 of less than 100 nM.
In the case of `Cc1cc2c(cc1Br)[C@H](N(C)C(=O)c1cc3c(cc1F)nc(N)c1cncn13)CO2` [Ff-460, (S)-4-amino-N-(5-bromo-6-methyl-2,3-dihydrobenzofuran-3-yl)-7-fluoro-N-methylimidazo[1,5-a]quinoxaline-8-carboxamide], the CC50 is reported as less than 100 nM.
In the case of `Nc1nc2cc(F)c(C(=O)N3CCO[C@@H]4Cc5cc(Cl)ccc5[C@@H]43)cc2n2cncc12` [Ff-461, (4-amino-7-fluoroimidazo[1,5-a]quinoxalin-8-yl)((4aS,9aR)-7-chloro-2,3,9,9a-tetrahydroindeno[2,1-b][1,4]oxazin-4(4aH)-yl)methanone], the CC50 is reported as less than 100 nM.
`CN(C(=O)c1cc2c(cc1F)nc(N)c1cncn12)[C@@H]1COc2cc(C3CC(C#N)C3)ccc21` (stereo partly drawn) [Ff-465, (S)-4-amino-N-(6-(3-cyanocyclobutyl)-2,3-dihydrobenzofuran-3-yl)-7-fluoro-N-methylimidazo[1,5-a]quinoxaline-8-carboxamide] was tested, and the CC50 was less than 100 nM.
With `Cc1ncc2c(N)nc3cnc(C(=O)N(C)[C@@H]4COc5cc(C67CC(C6)C7)ccc54)cc3n12` [Ff-466, (S)-4-amino-N-(6-(bicyclo[1.1.1]pentan-1-yl)-2,3-dihydrobenzofuran-3-yl)-N,1-dimethylimidazo[1,5-a]pyrido[3,4-e]pyrazine-8-carboxamide] the CC50 was less than 100 nM.
With `CC1(N(Cc2ccc(C(F)(F)F)cn2)C(=O)c2cc3c(cc2F)nc(N)c2cncn23)CC1` [Ff-468, 4-amino-7-fluoro-N-(1-methylcyclopropyl)-N-((5-(trifluoromethyl)pyridin-2-yl)methyl)imidazo[1,5-a]quinoxaline-8-carboxamide] the CC50 was less than 100 nM.
`CN(C(=O)c1cc2c(cc1F)nc(N)c1cncn12)[C@@H]1COc2cc(-c3cnn(-c4ccccc4)c3)ccc21` [Ff-472, (S)-4-amino-7-fluoro-N-methyl-N-(6-(1-phenyl-1H-pyrazol-4-yl)-2,3-dihydrobenzofuran-3-yl)imidazo[1,5-a]quinoxaline-8-carboxamide] was tested, and the CC50 was less than 100 nM.
Work on `CN(C(=O)c1cc2c(cc1F)nc(N)c1cncn12)[C@@H]1COc2cc(C3CC3(C)C)ccc21` (stereo partly drawn) [Ff-475, 4-amino-N-((3S)-6-(2,2-dimethylcyclopropyl)-2,3-dihydrobenzofuran-3-yl)-7-fluoro-N-methylimidazo[1,5-a]quinoxaline-8-carboxamide] yielded a CC50 of less than 100 nM.
In the case of `CN(C(=O)c1cc2c(cc1F)nc(N)c1cncn12)[C@@H]1COc2cc(C3CC34CCC4)ccc21` (stereo partly drawn) [Ff-476, 4-amino-7-fluoro-N-methyl-N-((3S)-6-(spiro[2.3]hexan-1-yl)-2,3-dihydrobenzofuran-3-yl)imidazo[1,5-a]quinoxaline-8-carboxamide], the CC50 is reported as 100 to 1000 nM.
With `CN(C(=O)c1cc2c(cc1F)nc(N)c1cncn12)[C@@H]1COc2cc([C@@H]3C[C@H]3c3ccn(C(F)F)n3)ccc21` [Ff-477, 4-amino-N—((S)-6-((1R,2R)-2-(1-(difluoromethyl)-1H-pyrazol-3-yl)cyclopropyl)-2,3-dihydrobenzofuran-3-yl)-7-fluoro-N-methylimidazo[1,5-a]quinoxaline-8-carboxamide] the CC50 was less than 100 nM.
Work on `C=C(C)c1ccc2c(c1)OC[C@H]2N(C)C(=O)c1cc2c(cc1F)nc(N)c1cncn12` [Ff-478, (S)-4-amino-7-fluoro-N-methyl-N-(6-(prop-1-en-2-yl)-2,3-dihydrobenzofuran-3-yl)imidazo[1,5-a]quinoxaline-8-carboxamide] yielded a CC50 of less than 100 nM.
`CC(C)c1ccc2c(c1)OC[C@H]2N(C)C(=O)c1cc2c(cc1F)nc(N)c1cncn12` [Ff-479, (S)-4-amino-7-fluoro-N-(6-isopropyl-2,3-dihydrobenzofuran-3-yl)-N-methylimidazo[1,5-a]quinoxaline-8-carboxamide] gave a CC50 of less than 100 nM.
`CN(C(=O)c1cc2c(cc1F)nc(N)c1cncn12)[C@@H]1COc2cc(C3=CCOC3)ccc21` [Ff-483, (S)-4-amino-N-(6-(2,5-dihydrofuran-3-yl)-2,3-dihydrobenzofuran-3-yl)-7-fluoro-N-methylimidazo[1,5-a]quinoxaline-8-carboxamide] was tested, and the CC50 was less than 100 nM.
`CN(C(=O)c1cc2c(cc1F)nc(N)c1cncn12)[C@@H]1COc2cc(C3=CCOC3(C)C)ccc21` [Ff-485, (S)-4-amino-N-(6-(2,2-dimethyl-2,5-dihydrofuran-3-yl)-2,3-dihydrobenzofuran-3-yl)-7-fluoro-N-methylimidazo[1,5-a]quinoxaline-8-carboxamide] was tested, and the CC50 was less than 100 nM.
Compound `CN(C(=O)c1cc2c(cc1F)nc(N)c1cncn12)[C@@H]1COc2cc(C3CCOC3(C)C)ccc21` (stereo partly drawn) [Ff-486, 4-amino-N-((3S)-6-(2,2-dimethyltetrahydrofuran-3-yl)-2,3-dihydrobenzofuran-3-yl)-7-fluoro-N-methylimidazo[1,5-a]quinoxaline-8-carboxamide] has a CC50 of less than 100 nM.
With `Nc1nc2cc(Cl)c(C(=O)N3CC[C@@H]4C[C@H]3c3ccc(Cl)cc34)cc2n2cncc12` [Ff-487, (4-amino-7-chloroimidazo[1,5-a]quinoxalin-8-yl)((1S,5R)-7-chloro-1,3,4,5-tetrahydro-2H-1,5-methanobenzo[c]azepin-2-yl)methanone] the CC50 was 100 to 1000 nM.
`Nc1nc2cc(Cl)c(C(=O)N3CC[C@H]4C[C@@H]3c3c(F)cc(Cl)cc34)cc2n2cncc12` [Ff-488, (4-amino-7-chloroimidazo[1,5-a]quinoxalin-8-yl)((1R,5S)-7-chloro-9-fluoro-1,3,4,5-tetrahydro-2H-1,5-methanobenzo[c]azepin-2-yl)methanone] showed a CC50 of 100 to 1000 nM.
Work on `Nc1nc2cc(Cl)c(C(=O)N3CC[C@H]4C[C@@H]3c3ccc(Cl)c(F)c34)cc2n2cncc12` [Ff-489, (4-amino-7-chloroimidazo[1,5-a]quinoxalin-8-yl)((1R,5S)-7-chloro-6-fluoro-1,3,4,5-tetrahydro-2H-1,5-methanobenzo[c]azepin-2-yl)methanone] yielded a CC50 of 100 to 1000 nM.
